From publication PMC9694926, “Novel Uracil-Based Inhibitors of Acetylcholinesterase with Potency for Treating Memory Impairment in an Animal Model of Alzheimer’s Disease” (Molecules, 2022)

Legend:
hAChE [1] = biological target: T1, hAChE (Homo sapiens, UniProt P22303); format: in vitro ADME; conditions: 0.1 mM, overnight with hAChE, phosphate buffer pH 8.0, 25 °C, NMR
T1 construct: purchased Sigma-Aldrich
Experimental: There is a possibility that the ester group of the compound 2c can be hydrolyzed by AChE. To test this possibility, the compound 2c (0.1 mM) was incubated overnight with AChE in phosphate buffer (pH 8.0). The same buffer containing compound 2c but without AChE was used as a control. After the end of incubation, the buffer was filtered out of AChE using a centricon-30 ultrafiltration micro-concentrator from Amicon (Millipore Corporation, Billerica, MA, USA) and samples were analyzed by NMR spectroscopy. It was shown that the resonance signals both in the control spectrum and in the spectrum of the residue after AChE treatment are almost the same to those for compound 2c (Supplementary materials, Figures S6, S22 and S41–S44).
The compound 2c was dissolved in ethanol and then in 2 mL of 0.1M sodium phosphate buffer (pH = 8.0) at the final concentration of 0.1 mM. Then, 2.0 units of hAChE were added. The final concentration of ethanol in the buffer was 0.1% vol. The compound 2c was incubated with hAChE overnight at 25 °C. The same volume of buffer containing compound 2c at the concentration of 0.1 mM but without AChE was used as a control. After the end of incubation, the buffer was filtered out of AChE using a centricon-30 ultrafiltration micro-concentrator from Amicon (Millipore Corporation, Billerica, MA, USA). […]

CD1 mice = assay: Acute toxicity (LD50), intraperitoneal injection; format: in vivo; conditions: i.p. injection
Experimental: All experiments involving animals were performed in accordance with the guidelines set out by the European Union Council Directive 2010/63/EU; the experimental protocols were approved by the Animal Care and Use Committee of the Federal Research Center “Kazan Scientific Center of the Russian Academy of Sciences”. Toxicological experiments were performed using intraperitoneal injection of the various compounds in CD1 mice weighing 20–25 g. Mice were maintained on a 12 h light/dark cycle (light from 7:00 a.m. to 7:00 p.m.) at 20−22 °C and 60−70% relative humidity. Five different doses (determined during preliminary tests) were used with six animals per dose. Animals were observed 14 days after injection, and symptoms of intoxication were recorded. […] LD50 was determined by the method of Weiss. Stock solutions of compounds were prepared in ethanol or water. Compounds were administered intraperitoneally in sterile physiological saline. The concentration of ethanol in physiological saline was 5% vol.

hAChE [2] = biological target: T1, hAChE; assay: Inhibition constants and inhibition type for hAChE (Dixon and Cornish-Bowden plots); format: biochemical
Experimental: (§1) To study the mechanism of hAChE and hBChE inhibition by compound 2c, the inhibition constants (Ki) were determined. Experiments were performed using three different concentrations of acetylthiocholine (ATC) as substrate for hAChE or butyrylthiocholine (BTC) for hBChE. Analysis of Dixon and Cornish-Bowden plots established that hAChE and hBChE inhibition was of mixed type, with Kci (competitive inhibition) and Kui (uncompetitive) components: Kci = […], Kui = 315 ± 95 pM for hAChE (Figure 3A,B), and Kci = 10.1 ± 3.1 µM, Kui = 24 ± 4.6 µM for hBChE (Figure 3C,D).
(§2) The inhibition constants (Ki) for hAChE and hBChE were determined by Ellman’s method at 412 nm and 25 °C in 0.1M sodium phosphate buffer (pH = 8.0) with various substrate (ATC, BTC) concentrations in the range 0.01–0.1 mM, using UV-1800 Shimadzu (Kyoto, Japan) spectrophotometer. The final enzyme concentration in the assays was in the picomolar range. Controls of active enzyme and substrate spontaneous hydrolysis in the absence of an inhibitor were performed for each substrate concentration. Absorbance change was recorded for 5 min. Inhibition constants were determined from Dixon plot and Cornish-Bowden transformation.

hBChE = biological target: T2, hBChE (Homo sapiens, UniProt P06276); assay: Inhibition constants and inhibition type for hBChE (Dixon and Cornish-Bowden plots); format: biochemical
T2 construct: hBChE from blood plasma; purchased Sigma-Aldrich; host or cells: human blood plasma
T2 sequence (P06276 29-602): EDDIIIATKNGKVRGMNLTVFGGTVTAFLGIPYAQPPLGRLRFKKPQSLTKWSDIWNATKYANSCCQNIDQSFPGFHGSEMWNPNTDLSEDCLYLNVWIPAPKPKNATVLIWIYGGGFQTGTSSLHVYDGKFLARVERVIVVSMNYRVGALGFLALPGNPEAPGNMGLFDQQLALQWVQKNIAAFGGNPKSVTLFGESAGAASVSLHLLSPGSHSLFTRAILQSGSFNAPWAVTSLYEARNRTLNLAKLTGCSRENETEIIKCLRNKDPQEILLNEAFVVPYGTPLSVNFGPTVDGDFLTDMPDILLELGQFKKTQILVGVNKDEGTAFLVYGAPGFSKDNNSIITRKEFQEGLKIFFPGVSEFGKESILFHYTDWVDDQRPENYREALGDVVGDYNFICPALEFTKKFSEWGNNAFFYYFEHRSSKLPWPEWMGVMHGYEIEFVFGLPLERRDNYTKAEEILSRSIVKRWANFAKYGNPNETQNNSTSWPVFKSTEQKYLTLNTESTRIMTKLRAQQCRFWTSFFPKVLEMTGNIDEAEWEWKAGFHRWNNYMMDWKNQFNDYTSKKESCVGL
Experimental: as §1, §2

T1 sequence (P22303 32-614): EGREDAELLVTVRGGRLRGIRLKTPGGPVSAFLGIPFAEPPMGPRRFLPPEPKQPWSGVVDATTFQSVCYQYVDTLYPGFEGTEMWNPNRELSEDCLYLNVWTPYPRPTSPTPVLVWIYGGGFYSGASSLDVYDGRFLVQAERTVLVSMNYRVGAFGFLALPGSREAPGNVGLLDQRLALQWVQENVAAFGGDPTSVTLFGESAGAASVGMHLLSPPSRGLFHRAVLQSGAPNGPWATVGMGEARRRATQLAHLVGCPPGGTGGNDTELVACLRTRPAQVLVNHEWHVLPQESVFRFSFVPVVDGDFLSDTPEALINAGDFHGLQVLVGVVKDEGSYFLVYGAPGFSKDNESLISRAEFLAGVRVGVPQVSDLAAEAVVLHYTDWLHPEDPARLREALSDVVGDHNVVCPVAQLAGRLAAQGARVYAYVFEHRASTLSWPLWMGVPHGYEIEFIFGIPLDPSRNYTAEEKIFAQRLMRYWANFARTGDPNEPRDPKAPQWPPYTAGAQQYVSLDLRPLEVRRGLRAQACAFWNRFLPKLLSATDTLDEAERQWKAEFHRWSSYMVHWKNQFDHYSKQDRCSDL

Structure (SMILES): CCN(CCCCCn1c(C)cc(=O)n(CCCCCN(CC)Cc2cccc(C(=O)OC)c2)c1=O)Cc1cccc(C(=O)OC)c1 [2c, 1,3-Bis[5-(meta-methoxycarbonylbenzylethylamino)pentyl]-6-methyluracil]
- stability in the presence of AChE (hydrolysis of ester groups) (hAChE [1]): remains stable in the presence of AChE
- LD50 (CD1 mice): 147 mg/kg
- type of inhibition (hAChE [2]): mixed type
- Kui (uncompetitive) (hAChE [2]; substrate ATC): 315 ± 95 pM
- type of inhibition (hBChE): mixed type
- Kui (uncompetitive) (hBChE; substrate BTC): 24 ± 4.6 µM
